Laboratory results taken from patent publication US20220265655A1, “METHODS OF TREATING INFLAMMATORY DISEASES” (Ribon Therapeutics, Inc., priority 2021, published 2022).

Assays:
[1] = test system: Alternaria sensitized mice challenged with Alternaria; details: Compound 2 500 mg/kg b.i.d., Compound 1 500 mg/kg with 1-ABT 25 mg/kg b.i.d.
[2] = test system: DNCB-induced atopic dermatitis model; experiment: DNCB-induced atopic dermatitis model (Example D)
[3] = test system: IMQ-induced psoriasis model; experiment: Imiquimod (IMQ)-induced psoriasis model (Example E)
[4] = test system: BLM-induced pulmonary fibrosis model
Experimental: BLM-induced pulmonary fibrosis is an established disease model for IPF. In the model, alveolar injury and interstitial inflammation/fibrosis are induced by intracheal BLM administration.
Formulations (50 μL/vial) were kept for dose verification on the first and last dosing day (2 vials each, total 4 vials).
At Day 0, 40 mice were induced to develop pulmonary fibrosis by a single intratracheal administration of bleomycin hydrochloride (BLM, Nippon Kayaku, Japan) in PBS at a dose of 3.0 mg/kg, in a volume of 50 μL per animal using Microsprayer® (Penn-Century, USA) under a mixture of medetomidine (0.75 mg/kg), midazolam (4 mg/kg) and butorphanol (5 mg/kg) anesthesia by intraperitoneal administration in a volume of 10 mL/kg. […] Five mice were intratracheally administered PBS, instead of the BLM, which served as the Sham group.
Tofacitinib was administered orally at a dose of 50 mg/kg in a volume of 10 mL/kg twice daily (total of 100 mg/kg/day).
The viability, clinical signs and behavior were monitored daily. Body weight was recorded daily from Day 0. Dosing volume was adjusted based on the latest body weight. […] The animals were sacrificed on Day 14 by exsanguination through the abdominal vena cava under a mixture of medetomidine, midazolam and butorphanol anesthesia. The time of the dosing and termination was recorded. The left and post-caval lobe weight for all mice were recorded.
For Group 2-4, BALF samples were collected by flushing the lung via the trachea with sterile PBS three times (1st BALF, 2nd BALF and 3rd BALF, 0.8 mL each) at sacrifice under a mixture of medetomidine, midazolam and butorphanol anesthesia. The 1st BALF was centrifuged at 3,000×g for 5 min at 4° C. and the supernatant was collected and stored at −80° C. The cell pellet from the first fraction (1st BALF) was resuspended and added to the remaining fractions of lavage fluid (2nd and 3rd BALF). The total BALF was centrifuged at 1,000×g for 5 min at 4° C. and the supernatant was removed. Ammonium-Chloride-Potassium (ACK) lysing buffer was added to the pellet and washed for lysis of erythrocytes. After addition of cold PBS, the fluid was centrifuged at 1,000×g for 3 min at 4° C. and the supernatant was removed. Resuspended in PBS and total cell number of BALF was counted using a hemocytometer (C-Chip disposable hemocytometer, Digital Bio). After counting the total cells, the cell suspension was re-suspended in PBS to 5×10^5 cells/mL. A smear sample was then prepared by spotting 100 μL of cell suspension onto slides, and air-dried using a dryer on cool setting.
Indwelling needle was inserted into trachea and connected to instillation route of syringe. The syringe was loaded with 10% neutral buffered formalin and kept at the height of 20 cm. […] The three unfixed lobes were washed with cold saline and measured wet weight.
To quantify lung hydroxyproline content, frozen left lung samples were processed by an acid hydrolysis method as follows. […] AC buffer (2.2M acetic acid/0.48M citric acid, 200 μL) was added to the samples, followed by centrifugation to collect the supernatant. […] The samples were then mixed with Ehrlich's solution (300 μL) and heated at 65° C. for 20 minutes to develop the color. After samples were cooled on ice and centrifuged to remove precipitates, the optical density of each supernatant was measured at 560 nm. The concentrations of hydroxyproline were calculated from the hydroxyproline standard curve. Lung hydroxyproline levels were expressed as […] per left lung.
For Group 2-4, BALF IL-4, IL-6, IL-10 and IL-17 levels were quantified by Quantikine enzyme linked immunosorbent assay kits (code. M4000B for IL-4, code. M6000B for IL-6, code. M1000B for IL-10, code. M1700 for IL-17, R&D systems) according to manufacturer instructions.
For Masson's Trichrome staining, the sections were deparaffinized and rehydrated, followed by re-fixation with Bouin's solution for 15 min.

[5] = test system: OXZ-induced colitis mouse model; details: Compound 1 1,000 mg/kg PO BID; tofacitinib 10 mg/kg PO BID
[6] = ratio (percentage) of BALF cells, mean ± SD

Question: Which results are given for O=c1[nH]c(CS[C@H]2CC[C@H](O)CC2)nc2cc(OCC3CC3)cc(F)c12 [Compound 2, 7-(Cyclopropylmethoxy)-5-fluoro-2-(((trans-4-hydroxycyclohexyl)thio)methyl)quinazolin-4(3H)-one]?
Answer: IgE blood serum levels [1]: reduced; levels of IL4, IL-5, IL-13, and IL-33 in BAL fluid [1]: reduced; levels of IL4, IL-5, IL-13, and IL-33 in lung tissue [1]: reduced; levels of eosinophils in BAL fluid [1]: reduced; levels of neutrophils in BAL fluid [1]: reduced; airway mucus in lung tissue ([1]; days 19-25): reduced

Question: Which “inhibition rate of clinical scoring (AUC of total clinical score) compared to vehicle” value ([2]; Compound 1 500 mg/kg PO BID, DEX ointment 70 mg topical QD, P<0.0001) does the source give for C[C@@H]1C[C@H]2[C@@H]3CCC4=CC(=O)C=C[C@]4(C)[C@@]3(F)[C@@H](O)C[C@]2(C)[C@@]1(O)C(=O)CO [DEX, Dexamethasone] here?
Answer: Its value is 43.5%.

Question: What about the “total clinical score, peak / high values” ([2]; Compound 1: peak on Day 17, DEX: high clinical scores, vehicle peak 11.9 on Day 17) of the same compound?
Answer: Its value is 6-7.

Question: And the bodyweight ([2]; monitored daily, Compound 1 500 mg/kg PO BID, DEX ointment topical QD)?
Answer: Its bodyweight is “caused decreases in bodyweight”.

Question: What about the “inhibition rate of clinical scoring (AUC of total clinical score)” value ([3]; Compound 1 500 mg/kg PO BID (P<0.001), DEX ointment 70 mg topical QD (P<0.0001)) of the same compound?
Answer: The value was 87.7%.

Question: And the bodyweight ([3]; monitored daily, consecutive IMQ treatment and dosing)?
Answer: Its bodyweight is “caused decreases in bodyweight”.

Question: For C[C@@H]1CCN(C(=O)CC#N)C[C@@H]1N(C)c1ncnc2[nH]ccc12 [Tofacitinib free base, Tofacitinib], which “mean body weight changes (% of Day 0) compared with Vehicle group” value ([4]; Compound 1 500 mg/kg PO BID, Tofacitinib free base 50 mg/kg PO BID, Day 1-14) is on record?
Answer: The value was “significantly higher than that of the Vehicle group from Day 6 to Day 14”.

Question: And the “Left lung weight” value ([4]; Day 14, mean ± SD)?
Answer: Its value is 101 ± 9 mg.

Question: What about the Post-caval lobe weight ([4]; Day 14, mean ± SD) of the same compound?
Answer: Its Post-caval lobe weight is 27 ± 4.

Question: What about the “Right inferior lobe weight” value ([4]; Day 14, mean ± SD) of the same compound?
Answer: The value was 84 ± 14.

Question: What about the Ashcroft score ([4]; Masson's trichrome-stained lung sections, mean ± SD) of the same compound?
Answer: The Ashcroft score was 2.2 ± 1.2.

Question: What about the “mice found dead during the treatment period” value ([4]; before reaching Day 14) of the same compound?
Answer: Its value is “no dead animals”.

Question: And the “bodyweight” value ([4]; day of sacrifice (Day 14), mean ± SD)?
Answer: Its value is 18.1 ± 1.7 g.

Question: What about the “BALF IL-6” value ([4]; mean ± SD) of the same compound?
Answer: The value was 4.4 ± 5.5 pg/mL.

Question: And the “Lung hydroxyproline (μg/left lung)” value ([4]; mean ± SD)?
Answer: Its value is 49.3 ± 8.3 μg/left lung.

Question: What about the “Total cells (×10^4) in BALF” value ([4]; mean ± SD) of the same compound?
Answer: Its value is 83.8 ± 50.0 ×10^4.

Question: And the “BALF IL-10” value ([4]; mean ± SD, Compound 1 (n = 6), Tofacitinib free base (n = 1))?
Answer: The value was 2.9 pg/mL.

Question: What about the “mean body weight on the day of sacrifice compared with the Vehicle group” value ([4]; mouse, in vivo) of the same compound?
Answer: The value was “increasing trend”.

Question: What about the “mean right inferior lobe weight compared with the Vehicle group” value ([4]; mouse, in vivo) of the same compound?
Answer: The value was “significant decreases”.

Question: And the “total number of cells in BALF compared with the Vehicle group” value ([4]; mouse, in vivo)?
Answer: Its value is “no significant difference”.

Question: What about the “Eosinophil in BALF” value ([4]; ratio (percentage) of BALF cells) of the same compound?
Answer: The value was 0.0.

Question: And the “Lymphocyte in BALF” value [4, 6]?
Answer: Its value is 11.7 ± 14.5.

Question: And the “Monocyte in BALF” value [4, 6]?
Answer: The value was 88.0 ± 15.2.

Question: What about the “Neutrophil in BALF” value [4, 6] of the same compound?
Answer: Its value is 0.3 ± 0.9.

Question: What about the “AUC of body weight change, difference to vehicle group” value [5] of the same compound?
Answer: The value was “a statistical difference was not seen”.

Question: And the “AUC of the DAI score in comparison to vehicle” value [5]?
Answer: The value was “suppressed”.

Question: What about the “DAI score in comparison to vehicle treated mice” value [5] of the same compound?
Answer: The value was “suppressed”.

Question: And the “body weight loss compared with vehicle group” value [5]?
Answer: Its value is “suppressed”.

Question: What about the “colon density (increase induced by OXZ)” value [5] of the same compound?
Answer: The value was “also suppressed”.

Question: And the “colon histology (H&E staining) compared to the vehicle group” value [5]?
Answer: Its value is “appeared similar to the sham group”.

Question: What about the “colon length (reduction induced by OXZ)” value [5] of the same compound?
Answer: Its value is “also suppressed”.

Question: What about the “colon weight (increase induced by OXZ)” value [5] of the same compound?
Answer: The value was “also suppressed”.

Question: What about the “pathological score of colitis severity in comparison to the vehicle control group” value [5] of the same compound?
Answer: The value was “increased integrity of the crypt structure, less inflammatory cell infiltration, reduced muscle thickening and less crypt abscess”.
